The values that follow are results of earlier work, collected in patent publication US4101650A, “Pepstatin floating minicapsules” (Zaidan Hojin Biseibutsu Kagaku Kenkyu Kai, priority 1977, dated 1978).

The structures appear in SMILES notation. Where a SMILES comes first, the peptide text is derived from it. [ ]: non-standard residue; d: D form. The star is where a group is joined. Sta = CC(C)C[C@H](N)[C@@H](O)CC(=O)O; Isovaleryl = CC(C)CC(=O)*

Data set [1] has as its system pepsin.
Data set [2] has as its target cathepsin D (Homo sapiens, UniProt P07339).
For data set [3], the target named is T1, renin (Homo sapiens, UniProt P00797).
T1 sequence (P00797 67-406): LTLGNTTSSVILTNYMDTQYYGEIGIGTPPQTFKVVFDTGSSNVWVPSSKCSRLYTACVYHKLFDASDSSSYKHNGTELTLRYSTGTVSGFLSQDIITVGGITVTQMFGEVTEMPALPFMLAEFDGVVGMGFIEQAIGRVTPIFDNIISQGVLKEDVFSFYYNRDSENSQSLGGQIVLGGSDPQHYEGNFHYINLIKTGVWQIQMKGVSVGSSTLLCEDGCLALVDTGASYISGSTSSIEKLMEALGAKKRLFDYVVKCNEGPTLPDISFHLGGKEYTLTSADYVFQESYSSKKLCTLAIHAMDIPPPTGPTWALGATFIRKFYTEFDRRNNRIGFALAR

cathepsin D, sequence (P07339 65-412, species assumed): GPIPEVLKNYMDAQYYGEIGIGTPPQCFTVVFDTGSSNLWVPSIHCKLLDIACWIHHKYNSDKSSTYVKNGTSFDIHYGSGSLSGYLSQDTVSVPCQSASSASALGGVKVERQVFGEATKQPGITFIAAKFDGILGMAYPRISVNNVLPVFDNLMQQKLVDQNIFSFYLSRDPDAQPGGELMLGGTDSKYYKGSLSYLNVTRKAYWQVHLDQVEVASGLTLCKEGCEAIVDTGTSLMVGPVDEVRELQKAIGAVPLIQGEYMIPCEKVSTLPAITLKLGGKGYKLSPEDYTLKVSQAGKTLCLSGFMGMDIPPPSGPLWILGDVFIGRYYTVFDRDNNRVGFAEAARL

As for `CC(C)CC(=O)N[C@H](C(=O)N[C@H](C(=O)N[C@@H](CC(C)C)[C@@H](O)CC(=O)N[C@@H](C)C(=O)N[C@@H](CC(C)C)[C@@H](O)CC(=O)O)C(C)C)C(C)C` [Pepstatin, RCO-L-Val-L-Val-AHMHA-L-Ala-AHMHA] (Isovaleryl-VV[Sta]A[Sta]-OH), the inhibition of pepsin result in data set [1] is given as “very strongly”. Moreover, the “inhibition of cathepsin D” value in data set [2] was “very strongly”. For the same molecule, in data set [3], the inhibition of renin entry was “relative strong inhibiton”.
